Experimental findings from ChEMBL document CHEMBL5137003, “Recent advancement in small molecules as HCV inhibitors” (Bioorg Med Chem, 2022) are described below.

In assay [1] the test system is Hepatitis C virus. In words: Antiviral activity against HCV JFH-1 infected in Huh7.5.1 cells assessed as decrease in intracellular and extracellular HCV RNA level measured after 3 days by RT-qPCR assay. The following applies: JFH-1, Huh-7.5.1, 72 h. The assay is classed as functional, organism-based, Hepacivirus hominis. A general note: In qPCR the cycle at which signal appears reflects the starting amount.

In assay [2] the test system is Hepatitis C virus. In words: Inhibition of HCV replication in human Huh7.5 cells after 3 hrs by renilla luciferase assay. The class given is functional, cell-based, Hepacivirus hominis. To be noted: Huh7.5, 3 h.
Assay [3] is described as follows: Inhibition of Hepatitis C virus NS3 helicase measured by DNA unwinding based assay. More on the design: species or system Hepacivirus hominis.
Assay [4] relates to Hepatitis C virus. As to the kind of experiment: Antiviral activity against HCV GT-3a. The class given is functional, organism-based, Hepacivirus hominis. The following applies: subtype 3a.
A short description of assay [5]: Inhibition of hepatitis C virus p7 ion channel. More on the design: species or system Hepacivirus hominis.
The target of assay [6] is T1, Hepatitis C virus serine protease, NS3/NS4A (Hepatitis C virus, UniProt A3EZI9+D2K2A8). As to the kind of experiment: Inhibition of HCV GT-1b NS3/4A protease measured by fluorescence assay. The class given is protein-complex assay, Hepacivirus hominis, subtype 1b.
The test system of assay [7] is Hepatitis C virus. As to the kind of experiment: Inhibition of HCV replication. The class given is functional, Hepacivirus hominis.
Assay [8] relates to Hepatitis C virus. In words: Antiviral activity against HCV GT-1b. The class given is functional, organism-based, Hepacivirus hominis. The following applies: subtype 1b.
For assay [9], the target named is T1, Hepatitis C virus serine protease, NS3/NS4A. In words: Inhibition of HCV GT-3a NS3/4A protease measured by fluorescence assay. The assay is classed as protein-complex assay, Hepacivirus hominis, subtype 3a.
The subject of assay [10] is Hepatitis C virus. As to the kind of experiment: Inhibition of HCV replicon cells. The class given is functional, Hepacivirus hominis. Background: Replicon systems follow genome replication, usually without infectious particles.
The target of assay [11] is T1, Hepatitis C virus serine protease, NS3/NS4A. As to the kind of experiment: Inhibition of HCV GT-3a NS3/4A protease. The assay is classed as protein-complex assay, Hepacivirus hominis, subtype 3a.
The subject of assay [12] is Hepatitis C virus. In words: Antiviral activity against HCV JFH-1 infected in Huh7.5 cells and measured after 4 days. The class given is functional, organism-based, Hepacivirus hominis. The following applies: JFH-1, Huh7.5, 96 h.
Assay [13] relates to Hepatitis C virus. As to the kind of experiment: Inhibition of HCV replication in human Huh7.5 cells cultured with SGR-Neo-RLuc-JFH1-2A replicon celIs measured after 72 hrs by luciferase assay. To be noted: JFH-1, Huh7.5, 72 h. The class given is functional, cell-based, Hepacivirus hominis.
The nature of assay [14]: Inhibition of HCV GT1b full-length NS3/4A protease D168A mutant using Ac-Glu-Glu-Val-Val-Ala-Cys-AMC as substrate and measured by fluorescence based assay. Further details: species or system Hepacivirus hominis, subtype 1b.
Assay [15] concerns the target T1, Hepatitis C virus serine protease, NS3/NS4A. In words: Inhibition of HCV GT1b recombinant NS3/4A protease using Ac-Glu-Glu-Val-Val-Ala-Cys-AMC as substrate and measured by fluorescence based assay. The assay is classed as protein-complex assay, Hepacivirus hominis, subtype 1b.
For assay [16], the system named is Hepatitis C virus. As to the kind of experiment: Antiviral activity against HCV infected in Huh-7.5.1 cells assessed as inhibition of HCV production measured after 24 hrs by titration assay. The class given is functional, organism-based, Hepacivirus hominis. To be noted: Huh-7.5.1, 24 h.
The nature of assay [17]: Inhibition of Cy5-dT15 ssDNA to Hepatitis C virus subtype 1b (Con1) NS3 helicase measured by fluorescence polarization (FP) based ssDNA binding assay. More on the design: species or system Hepacivirus hominis. For orientation: Fluorescence polarisation rises when a labelled molecule tumbles more slowly, as on binding a larger partner.
The subject of assay [18] is Hepatitis C virus. In words: Antiviral activity against HCV GT-1b infected in Huh-5-2 cells and measured after 24 hrs by luciferase assay. The assay is classed as functional, organism-based, Hepacivirus hominis. The following applies: subtype 1b, Huh-5-2, 24 h.
Assay [19] has as its system Internal ribosome entry site (IRES). In words: Disruption of hepatitis C virus-internal ribosome entry site (IRES) RNA base stacking interaction. Further details: species or system Hepacivirus hominis.
In assay [20] the test system is Hepatitis C virus. In words: Antiviral activity against HCV GT-1b infected in Huh-5-2 cells and measured after 72 hrs by luciferase assay. The assay is classed as functional, organism-based, Hepacivirus hominis. To be noted: subtype 1b, Huh-5-2, 72 h.
In assay [21] the test system is Hepatitis C virus. In words: Antiviral activity against HCV GT-3a infected in Huh-5-2 cells and measured after 72 hrs by luciferase assay. The class given is functional, organism-based, Hepacivirus hominis. The following applies: subtype 3a, Huh-5-2, 72 h.
The subject of assay [22] is Hepatitis C virus. As to the kind of experiment: Antiviral activity against HCV GT-3a (S52) assessed as inhibition of viral replication measured by renilla luciferase assay. To be noted: subtype 3a. The class given is functional, organism-based, Hepacivirus hominis.
For assay [23], the system named is Hepatitis C virus. In words: Antiviral activity against HCV assessed as inhibition of viral fusion and replication at attachment stage. The assay is classed as functional, organism-based, Hepacivirus hominis.
The target of assay [24] is RNA-directed RNA polymerase (Hepacivirus hominis, UniProt O39930). As to the kind of experiment: Inhibition of Hepatitis C virus NS5B RNA-dependent-RNA-polymerase.
Assay [25] is described as follows: Inhibition of Hepatitis C virus NS3 protease. Further details: species or system Hepacivirus hominis.
In assay [26] the test system is Hepatitis C virus. In words: Antiviral activity against HCV GT-1a expressing NS5B S365A mutant variant. The assay is classed as functional, organism-based, Hepacivirus hominis. The following applies: subtype 1a.
The test system of assay [27] is Hepatitis C virus. In words: Antiviral activity against HCV GT-1a expressing NS5B C316Y mutant variant. The assay is classed as functional, organism-based, Hepacivirus hominis. The following applies: subtype 1a.
Assay [28] has as its system Hepatitis C virus. In words: Antiviral activity against HCV GT-4a. The assay is classed as functional, organism-based, Hepacivirus hominis. The following applies: subtype 4a.

A word on the EC50: it is the midpoint of the concentration-response curve. As for `Cc1cc(Oc2ccc(N)cn2)ccc1Cl`, the EC50 with Hepatitis C virus [1] was found to be 80 nM.
`O=C(NCc1ccco1)c1ccc2[nH]c(COc3ccc(C45CC6CC(CC(C6)C4)C5)cc3)nc2c1` returned an EC50 with Hepatitis C virus [2] of 1500 nM.
As usually defined, the IC50 is the point on the concentration scale where inhibition reaches its midpoint. `COc1ccc2c(c1)c(C=C1C(=O)NC(=S)NC1=O)cn2C(=O)c1cccc2ccccc12` showed an IC50 in [3] of 23500 nM.
Turning to `COC(=O)N[C@H](C(=O)N1CCC[C@H]1c1nc(C#CC#Cc2ccc(-c3c[nH]c([C@@H]4CCCN4C(=O)[C@@H](NC(=O)OC)C(C)C)n3)cc2)c[nH]1)C(C)C`, a half-maximal effect in the assay with Hepatitis C virus [4] (EC50) was put at 2.45 nM.
In the case of `O=C1CCC(C23CC4CC(CC(C4)C2)C3)=NN1c1ccccc1`, 520 nM corresponded to half-maximal inhibition in assay [5] (IC50).
For `Cc1cc(NC(=O)Cc2csc(NS(=O)(=O)c3ccccc3)n2)ccc1Br`, the IC50 in [6] was determined as 2200 nM.
Regarding `CCN(CC)c1ccc(Oc2ccc(-c3[nH]c4cccc(F)c4c(=O)c3C)cc2F)cc1`, in the assay on Hepatitis C virus [7], it took 5 nM to reach a half-maximal effect (EC50).
Consider `O=C(N[C@@H](C(=O)N1CCC[C@H]1c1ncc(-c2ccc(-c3ccc(-c4cnc([C@@H]5CCCN5C(=O)[C@H](NC(=O)C5CC5)c5ccccc5)s4)cc3)cc2)s1)c1ccccc1)C1CC1`, for which the EC50 in the assay on Hepatitis C virus [8] turned out to be 0.003 nM.
With `COc1ccc2c(c1)c(C=C1C(=O)NC(=S)NC1=O)cn2C(=O)c1ccc2ccccc2c1`, in assay [3], the concentration for half-maximal inhibition (IC50) worked out at 21400 nM.
In the case of `Cc1ccc(S(=O)(=O)Nc2ccccc2C(=O)Nc2nc3c(Cl)ccc(Cl)c3s2)cc1`, it took 1600 nM to reach half-maximal inhibition in assay [9] (IC50).
In [3], `O=C1NC(=S)NC(=O)C1=Cc1cn(C(=O)c2ccc3ccccc3c2)c2ccccc12` returned an IC50 of 21600 nM.
Consider `COC(=O)N[C@H](C(=O)N1CCC[C@H]1c1ncc(-c2ccc(C#CC#Cc3cnc([C@@H]4CCCN4C(=O)[C@H](NC(=O)OC)c4ccccc4)[nH]3)c(-c3cccc(F)c3F)c2)[nH]1)C(C)C`, for which the IC50 in the assay with Hepatitis C virus [4] was determined as 0.016 nM.
For `O=C(Nc1ccn([C@@H]2O[C@H](CO)[C@@H](O)C2(F)F)c(=O)n1)C1Cc2ccccc2C1`, the IC50 in the assay with Hepatitis C virus [10] stood at 10 nM.
For `[2H]C([2H])([2H])Oc1cc2ccnc(O[C@@H]3C[C@H]4C(=O)N[C@]5(C(=O)NS(=O)(=O)C6(C)CC6)C[C@H]5/C=C/CC[C@@H](C)C[C@@H](CC)[C@H](NC(=O)OC(C)(C)C(F)(F)F)C(=O)N4C3)c2cc1F`, the IC50 in [11] was determined as 4.8 nM.
With `CCC[C@H](NC(=O)[C@@H]1[C@H]2CCC[C@H]2CN1C(=O)[C@@H](NC(=O)[C@@H](NC(=O)c1cnc(C(=O)NCCOCCOCCOc2cc3c4c(cccc4c2)C(=O)N(C2CCC(=O)NC2=O)C3=O)cn1)C1CCCCC1)C(C)(C)C)C(=O)C(=O)NC1CC1` (stereo partly drawn), the IC50 with Hepatitis C virus [12] worked out at 748 nM.
`O=C(Nc1ccc(C2=NCCN2)cc1)c1cc(C(=O)Nc2ccc(C3=NCCN3)cc2)cc(C(=O)Nc2ccc(C3=NCCN3)cc2)c1` displayed an IC50 in the assay on Hepatitis C virus [13] of 14000 nM.
Consider `CC(C)c1ccc(NC(=O)N[C@@H](Cc2c[nH]c3ccccc23)C(=O)NCCCN2CCCCC2)cc1`, for which the IC50 was 5980 nM in [14] and 4600 nM in [15].
On to `CC1(NCc2nnc(-c3cc(O)cc(O)c3)[nH]2)C2CC3CC(C2)CC1C3` (stereo not drawn), for which the IC50 in the assay on Hepatitis C virus [16] amounted to 6420 nM.
The compound `CCCCC(O)c1cccc(=O)o1` (stereo not drawn) displayed an IC50 in assay [17] of 2800 nM.
For `CCOC(=O)N[C@@H](CC(C)C)C(=O)N1CCC[C@H]1C(=O)Nc1cccc(C#CC#Cc2cccc(NC(=O)[C@@H]3CCCN3C(=O)[C@H](CC(C)C)NC(=O)OCC)c2)c1`, the EC50 in the assay with Hepatitis C virus [18] was determined as 0.0399 nM.
`CN1CCN(CCCNc2nc3cc([N+](=O)[O-])ccc3nc2NCc2ccc(NC(=O)/C=C/c3ccc(N(C)C)cc3)cc2)CC1` displayed an EC50 in [19] of 67000 nM.
With `CCOC(=O)N[C@@H](C(=O)N1CCC[C@@H]1C(=O)Nc1ccc2c(c1)Cc1cc(NC(=O)[C@H]3CCCN3C(=O)[C@H](NC(=O)OCC)c3ccccc3)ccc1-2)c1ccccc1`, the EC50 was 0.036 nM in the assay with Hepatitis C virus [20] and 1.2 nM in the assay with Hepatitis C virus [21].
Consider `CCCCOC(=O)N[C@H](C(=O)N1CCC[C@H]1C(=O)Nc1ccc(-c2ccc(NC(=O)[C@@H]3CCCN3C(=O)[C@@H](NC(=O)OCCCC)c3ccccc3)cc2)cc1)c1ccccc1`, for which the EC50 in the assay on Hepatitis C virus [8] came out at 0.0067 nM.
Take `COc1ccc(N/C=C2\C(=O)N(Cc3ccccc3)c3ccccc32)cc1`: a half-maximal effect with Hepatitis C virus [4] (EC50) was put at 738 nM.
For `CC(C)(C)OC(=O)c1c(NC(=O)NCc2c(C(F)(F)F)sc3c2CCNC3)sc2c1CCCC2`, in the assay with Hepatitis C virus [22], the EC50 was determined as 0.21 nM.
For `COc1ccc2cc3[n+](cc2c1OC)CCc1cc2c(cc1-3)OCO2` [BERBERINE], the EC50 with Hepatitis C virus [23] was 7870 nM.
Consider `O=C(O[C@@H]1O[C@@H]2COC(=O)c3cc(O)c(O)c(O)c3-c3c(cc(O)c(O)c3O)C(=O)O[C@H]([C@H]1O)[C@@H]2O)c1cc(O)c(O)c(O)c1` [CORILAGIN], for which the half-maximal inhibitory concentration (IC50) in [24] is 20000 nM; in assay [25], < 1000 nM.
For `CNC(=O)c1c(-c2ccc(F)cc2)oc2cc(N(C)S(C)(=O)=O)c(-c3ccc4c(n3)-c3cc5c(F)cccc5n3CO4)cc12` [MK-8876], the results for the EC50 in the assay with Hepatitis C virus [26] and in the assay on Hepatitis C virus [27] were 1 nM and 2.3 nM, respectively.
Turning to `COC(=O)N[C@H](C(=O)N1CCC[C@H]1C(=O)Nc1ccc([C@@H]2CC[C@@H](c3ccc(NC(=O)[C@@H]4CCCN4C(=O)[C@@H](NC(=O)OC)C(C)C)cc3)N2c2ccc(C(C)(C)C)cc2)cc1)C(C)C` [OMBITASVIR], in the assay on Hepatitis C virus [28], the EC50 turned out to be 0.00171 nM.
